Patent publication US20070128217A1 (priority 2003, published 2007)

Legend:
[1] = system: antibodies in sera from SARS patients (sera 1a, 1b, 2, 6, 37, 62, London, SARS-yellow, SARS-green); format: binding, human; set-up: Binding of serum 6 to linear peptides of protein X1 of SARS-CoV Urbani / Binding of serum 37 to linear peptides of protein X1 of SARS-CoV Urbani / Binding of serum 6 to looped/cyclic peptide (PEPSCAN-ELISA) / Binding of serum 37 to looped/cyclic peptide (PEPSCAN-ELISA) / Binding of serum 37 to looped/cyclic peptides of protein X1 of SARS-CoV Urbani / Binding of serum 6 to linear peptides of protein X2 / Binding of serum 37 to linear peptides of protein X2 / Binding of serum 37 to looped/cyclic peptides of protein X2 of SARS-CoV Urbani / Binding of serum 6 to linear peptides of protein M of SARS-CoV Urbani / Binding of serum 37 to linear peptides of protein M of SARS-CoV Urbani / Binding of serum 6 to looped/cyclic peptides of protein M of SARS-CoV Urbani / Binding of serum 37 to looped/cyclic peptides of protein M of SARS-CoV Urbani / Binding of serum 6 to linear peptides of protein X3 of SARS-CoV Urbani / Binding of serum 37 to linear peptides of protein X3 of SARS-CoV Urbani / Binding of serum 37 to looped/cyclic peptides of protein X3 of SARS-CoV Urbani / Binding of serum 6 to linear peptides of protein X4 of SARS-CoV Urbani / Binding of serum 37 to linear peptides of protein X4 of SARS-CoV Urbani / Binding of serum 37 to looped/cyclic peptides of protein X4 of SARS-CoV Urbani / Binding of serum 6 to linear peptides of protein X5 of SARS-CoV Urbani / Binding of serum 37 to linear peptides of protein X5 of SARS-CoV Urbani / Binding of serum 37 to looped/cyclic peptides of protein X5 of SARS-CoV Urbani / Binding of serum 6 to linear peptides of protein N of SARS-CoV Urbani / Binding of serum 37 to linear peptides of protein N of SARS-CoV Urbani / Binding of serum 6 to linear peptide (PEPSCAN-ELISA) / Binding of serum 1a to looped/cyclic peptides of protein N of SARS-CoV Urbani / Binding of serum 1b to looped/cyclic peptides of protein N of SARS-CoV Urbani / Binding of serum 2 to looped/cyclic peptides of protein N of SARS-CoV Urbani / Binding of serum 6 to looped/cyclic peptides of protein N of SARS-CoV Urbani / Binding of serum 37 to looped/cyclic peptides of protein N of SARS-CoV Urbani / Binding of serum 62 to looped/cyclic peptides of protein N of SARS-CoV Urbani / Binding of serum London to looped/cyclic peptides of protein N of SARS-CoV Urbani / Binding of serum SARS-green to looped/cyclic peptides of protein N of SARS-CoV Urbani: unit not given here
[2] = system: control sera (pooled serum of ten healthy LUMC hospital workers; commercial negative donor pooled serum from the Dutch bloodbank); format: binding, human; set-up: Binding of Control serum LUMC to linear peptides / Binding of Control serum Blood-bank to linear peptides / Binding of Control serum LUMC to looped peptides / Binding of Control Serum Blood-Bank to Looped peptides / Binding of Control serum LUMC to linear peptides of the protein M of SARS-CoV Urbani / Binding of Control serum Blood-bank to linear peptides of the protein M of SARS-CoV Urbani / Binding of Control serum LUMC to looped peptides of the protein M of SARS-CoV Urbani / Binding of Control Serum Blood-Bank to Looped peptides of the protein M of SARS-CoV Urbani: unit not given here
[3] = system: rabbit serum obtained by immunizing a rabbit with the SARS-CoV strain Frankfurt 1; format: binding; set-up: Binding of a rabbit serum to linear peptides / Binding of a rabbit serum to looped peptides / Rabbit serum linear peptides / Rabbit serum looped peptides / Binding of a rabbit serum to linear peptides of protein N of SARS-CoV Urbani (Rabbit serum linear peptides) / Binding of a rabbit serum to looped/cyclic peptides of protein N of SARS-CoV Urbani (Rabbit serum looped peptides): unit not given here
[4] = system: recombinant human anti-SARS-CoV antibody 03-018; format: binding; set-up: Binding of antibody 03-018 to linear peptides of the N protein of SARS-CoV Urbani / Binding of antibody 03-018 to looped/cyclic peptides of the N protein of SARS-CoV Urbani: unit not given here

## WVATEGALNTPKDHI
[1]
  Binding of serum 1a to linear peptides of protein N of SARS-CoV Urbani: 0.2
  Binding of serum 1a to looped/cyclic peptides of protein N of SARS-CoV Urbani: 0.3
  Binding of serum 1b to linear peptides of protein N of SARS-CoV Urbani: 0.1
  Binding of serum 1b to looped/cyclic peptides of protein N of SARS-CoV Urbani: 0.2
  Binding of serum 2 to linear peptides of protein N of SARS-CoV Urbani: 0.3
  Binding of serum 2 to looped/cyclic peptides of protein N of SARS-CoV Urbani: 0.3
  Binding of serum 6 to linear peptides of protein N of SARS-CoV Urbani: 0.2
  Binding of serum 6 to looped/cyclic peptides of protein N of SARS-CoV Urbani: 0.2
  Binding of serum 37 to linear peptides of protein N of SARS-CoV Urbani: 0.7
  Binding of serum 37 to looped/cyclic peptides of protein N of SARS-CoV Urbani: 0.5
  Binding of serum 62 to linear peptides of protein N of SARS-CoV Urbani: 0.9
  Binding of serum 62 to looped/cyclic peptides of protein N of SARS-CoV Urbani: 0.4
  Binding of serum London to linear peptides of protein N of SARS-CoV Urbani: 0.6
  Binding of serum London to looped/cyclic peptides of protein N of SARS-CoV Urbani: 0.4
  Binding of serum SARS-green to linear peptides of protein N of SARS-CoV Urbani: 0.6
  Binding of serum SARS-green to looped/cyclic peptides of protein N of SARS-CoV Urbani: 0.4
  Binding of serum SARS-yellow to linear peptides of protein N of SARS-CoV Urbani: 0.6
  Binding of serum SARS-yellow to looped/cyclic peptides of protein N of SARS-CoV Urbani: 0.2
[2]
  Binding of Control Serum Blood-Bank to Looped peptides: 0.5
  Binding of Control serum Blood-bank to linear peptides: 0.8
  Binding of Control serum LUMC to linear peptides: 0.9
  Binding of Control serum LUMC to looped peptides: 0.5
[3]
  Binding of a rabbit serum to linear peptides of protein N of SARS-CoV Urbani (Rabbit serum linear peptides): 0.1
  Binding of a rabbit serum to looped/cyclic peptides of protein N of SARS-CoV Urbani (Rabbit serum looped peptides): 0.2
[4]
  Binding of antibody 03-018 to linear peptides of the N protein of SARS-CoV Urbani: 0.1
  Binding of antibody 03-018 to looped/cyclic peptides of the N protein of SARS-CoV Urbani: 0.2

## RWYFYYLGTGPEASL
[1]
  Binding of serum 1a to linear peptides of protein N of SARS-CoV Urbani: 0.3
  Binding of serum 1a to looped/cyclic peptides of protein N of SARS-CoV Urbani: 0.4
  Binding of serum 1b to linear peptides of protein N of SARS-CoV Urbani: 0.2
  Binding of serum 1b to looped/cyclic peptides of protein N of SARS-CoV Urbani: 0.4
  Binding of serum 2 to linear peptides of protein N of SARS-CoV Urbani: 0.2
  Binding of serum 2 to looped/cyclic peptides of protein N of SARS-CoV Urbani: 0.5
  Binding of serum 6 to linear peptides of protein N of SARS-CoV Urbani: 0.2
  Binding of serum 6 to looped/cyclic peptides of protein N of SARS-CoV Urbani: 0.3
  Binding of serum 37 to linear peptides of protein N of SARS-CoV Urbani: 0.8
  Binding of serum 37 to looped/cyclic peptides of protein N of SARS-CoV Urbani: 1.1
  Binding of serum 62 to linear peptides of protein N of SARS-CoV Urbani: 0.8
  Binding of serum 62 to looped/cyclic peptides of protein N of SARS-CoV Urbani: 0.9
  Binding of serum London to linear peptides of protein N of SARS-CoV Urbani: 0.4
  Binding of serum London to looped/cyclic peptides of protein N of SARS-CoV Urbani: 0.5
  Binding of serum SARS-green to linear peptides of protein N of SARS-CoV Urbani: 0.3
  Binding of serum SARS-green to looped/cyclic peptides of protein N of SARS-CoV Urbani: 0.8
  Binding of serum SARS-yellow to linear peptides of protein N of SARS-CoV Urbani: 0.6
  Binding of serum SARS-yellow to looped/cyclic peptides of protein N of SARS-CoV Urbani: 0.7
[2]
  Binding of Control Serum Blood-Bank to Looped peptides: 0.7
  Binding of Control serum Blood-bank to linear peptides: 0.6
  Binding of Control serum LUMC to linear peptides: 0.7
  Binding of Control serum LUMC to looped peptides: 0.8
[3]
  Binding of a rabbit serum to linear peptides of protein N of SARS-CoV Urbani (Rabbit serum linear peptides): 0.2
  Binding of a rabbit serum to looped/cyclic peptides of protein N of SARS-CoV Urbani (Rabbit serum looped peptides): 0.6
[4]
  Binding of antibody 03-018 to linear peptides of the N protein of SARS-CoV Urbani: 0.1
  Binding of antibody 03-018 to looped/cyclic peptides of the N protein of SARS-CoV Urbani: 0.2

## NGGRNGARPKQRRPQ
[1]
  Binding of serum 1a to linear peptides of protein N of SARS-CoV Urbani: 0.2
  Binding of serum 1a to looped/cyclic peptides of protein N of SARS-CoV Urbani: 0.3
  Binding of serum 1b to linear peptides of protein N of SARS-CoV Urbani: 0.1
  Binding of serum 1b to looped/cyclic peptides of protein N of SARS-CoV Urbani: 0.2
  Binding of serum 2 to linear peptides of protein N of SARS-CoV Urbani: 0.2
  Binding of serum 2 to looped/cyclic peptides of protein N of SARS-CoV Urbani: 0.3
  Binding of serum 6 to linear peptides of protein N of SARS-CoV Urbani: 0.2
  Binding of serum 6 to looped/cyclic peptides of protein N of SARS-CoV Urbani: 0.3
  Binding of serum 37 to linear peptides of protein N of SARS-CoV Urbani: 0.7
  Binding of serum 37 to looped/cyclic peptides of protein N of SARS-CoV Urbani: 0.6
  Binding of serum 62 to linear peptides of protein N of SARS-CoV Urbani: 0.7
  Binding of serum 62 to looped/cyclic peptides of protein N of SARS-CoV Urbani: 0.5
  Binding of serum London to linear peptides of protein N of SARS-CoV Urbani: 0.5
  Binding of serum London to looped/cyclic peptides of protein N of SARS-CoV Urbani: 0.3
  Binding of serum SARS-green to linear peptides of protein N of SARS-CoV Urbani: 0.5
  Binding of serum SARS-green to looped/cyclic peptides of protein N of SARS-CoV Urbani: 0.4
  Binding of serum SARS-yellow to linear peptides of protein N of SARS-CoV Urbani: 0.5
  Binding of serum SARS-yellow to looped/cyclic peptides of protein N of SARS-CoV Urbani: 0.5
[2]
  Binding of Control Serum Blood-Bank to Looped peptides: 0.7
  Binding of Control serum Blood-bank to linear peptides: 0.6
  Binding of Control serum LUMC to linear peptides: 0.6
  Binding of Control serum LUMC to looped peptides: 0.7
[3]
  Binding of a rabbit serum to linear peptides of protein N of SARS-CoV Urbani (Rabbit serum linear peptides): 0.1
  Binding of a rabbit serum to looped/cyclic peptides of protein N of SARS-CoV Urbani (Rabbit serum looped peptides): 1.1
[4]
  Binding of antibody 03-018 to linear peptides of the N protein of SARS-CoV Urbani: 0.2
  Binding of antibody 03-018 to looped/cyclic peptides of the N protein of SARS-CoV Urbani: 0.3

## IGYYRRATRRVRGGD
[1]
  Binding of serum 1a to linear peptides of protein N of SARS-CoV Urbani: 0.2
  Binding of serum 1a to looped/cyclic peptides of protein N of SARS-CoV Urbani: 0.3
  Binding of serum 1b to linear peptides of protein N of SARS-CoV Urbani: 0.1
  Binding of serum 1b to looped/cyclic peptides of protein N of SARS-CoV Urbani: 0.2
  Binding of serum 2 to linear peptides of protein N of SARS-CoV Urbani: 0.1
  Binding of serum 2 to looped/cyclic peptides of protein N of SARS-CoV Urbani: 0.5
  Binding of serum 6 to linear peptides of protein N of SARS-CoV Urbani: 0.2
  Binding of serum 6 to looped/cyclic peptides of protein N of SARS-CoV Urbani: 0.3
  Binding of serum 37 to linear peptides of protein N of SARS-CoV Urbani: 0.5
  Binding of serum 37 to looped/cyclic peptides of protein N of SARS-CoV Urbani: 0.7
  Binding of serum 62 to linear peptides of protein N of SARS-CoV Urbani: 0.4
  Binding of serum 62 to looped/cyclic peptides of protein N of SARS-CoV Urbani: 0.6
  Binding of serum London to linear peptides of protein N of SARS-CoV Urbani: 0.4
  Binding of serum London to looped/cyclic peptides of protein N of SARS-CoV Urbani: 0.4
  Binding of serum SARS-green to linear peptides of protein N of SARS-CoV Urbani: 0.2
  Binding of serum SARS-green to looped/cyclic peptides of protein N of SARS-CoV Urbani: 0.3
  Binding of serum SARS-yellow to linear peptides of protein N of SARS-CoV Urbani: 0.6
  Binding of serum SARS-yellow to looped/cyclic peptides of protein N of SARS-CoV Urbani: 0.5
[2]
  Binding of Control Serum Blood-Bank to Looped peptides: 0.7
  Binding of Control serum Blood-bank to linear peptides: 0.7
  Binding of Control serum LUMC to linear peptides: 0.5
  Binding of Control serum LUMC to looped peptides: 0.7
[3]
  Recognition of the peptide by the rabbit serum: recognized
[4]
  Binding of antibody 03-018 to linear peptides of the N protein of SARS-CoV Urbani: 0.1
  Binding of antibody 03-018 to looped/cyclic peptides of the N protein of SARS-CoV Urbani: 0.2
